Assay results published in US20160264593A1 (priority 2013, published 2016).
“And” between values parts separate entries of the source, which are not always exact repeats. Identical values can stand only once. Like-named read-outs stand apart in the source and are kept apart here.

How the values were obtained:
[1] = test system: PP2A; test: PP2A activity in mouse livers after IP dosing (PP2A immunoprecipitation phosphatase assay, malachite green); assay type: in vivo, Balb/c mice; conditions: liver
Experimental: (§1) Coomassie (Bradford) Protein Assay Kit (Pierce); PP2A Immunoprecipitation Phosphatase Assay Kit (Millipore); Lysate preparation for low endogenous phosphate: 20 mM imidazole-HCl, 2 mM EDTA, 2 mM EGTA, 1 mM PMSF, 1 mM benzamidine, 10 ug/ml each of aprotinin, leupeptin, antipain, soybean trypsin inhibitor; Normal Mouse IgG (Millipore); Okadaic acid (OA) (Tocris); DMSO (Sigma).
(§2) • Species: Mus Musculus • Strain: Balb/c mice • Age: 6-8 weeks • Sex: female • Body weight: 18-22 g • Vendor: Shanghai Laboratory Animal Center, Shanghai, China; • Number of animals: 66 Balb/c mice plus spare
(§3) The mice were kept in laminar flow rooms at constant temperature and humidity with 4 animals in each cage. • Temperature: 20-25 • Humidity: 40-70%. • Light cycle: 12 hours light and 12 hours dark. • Cages: Made of polycarbonate. The size is 29 cm×17.5 cm×12 cm (L×w×H). The bedding material is wood debris, which is changed once per week. • Diet: Animals had free access to irradiation sterilized dry granule food during the entire study period. • Water: Animals had free access to sterile drinking water. • Cage identification: the identification labels for each cage contained the following information: number of animals, sex, strain, date arrival, treatment, study number, group number, and the starting date of the treatment. • Animal identification: Animals were marked by ear punch.
(§4) All the procedures related to animal handling, care, and the treatment in this study were performed according to guidelines approved by the Institutional Animal Care and Use Committee (IACUC) of WuXi AppTec (Shanghai), following the guidance of the Association for Assessment and Accreditation of Laboratory Animal Care (AAALAC). At the time of routine monitoring, the animals were checked and recorded for any effects of tumor growth on normal behavior such as mobility, food and water consumption (by looking only), body weight gain/loss, eye/hair matting and any other abnormal effect.
(§5) 1. Proper amount of the compounds were weighed. 2. The compounds were dissolved in 4% sterile sodium bicarbonate. 3. All of the compounds should be well dissolved and clear. 4. The compounds should be kept cold once in solution and injected within an hour. 5. The mice were administered intraperitoneally according to their body weights, 20 g mouse was treated with 0.2 ml compound solution. 6. Mice were treated with vehicle and compounds according to Table 1. 7. 3 hours after the dose, 3 mice from each group were euthanized by
(§6) CO2 exposure, and the brains and left lobe of livers were taken and snap-frozen in liquid nitrogen immediately. 6 hours after the dose, the other 3 mice from each group were euthanized by CO2 exposure, and the brains and left lobe of livers were taken and snap-frozen in liquid nitrogen immediately.
(§7) Preparation of malachite green phosphate detection solution Added […] of Solution B to each 1 mL of Solution A, kept at room temperature during use. […] of mixed solution AB is used per assay well.
(§8) Diluted 125 mL Phosphate Standard (Solution C) with 1125 mL of distilled water to make 0.1 mM working solution. The solution was used to prepare a phosphate standard curve as described in the table below.
(§9) 1. 25 μL of each phosphate standards was transferred to wells of microliter plate. 2. Added 100 μL of Malachite Green Solution AB. Mixed carefully without creating bubbles. 3. Cultured for 15 minutes at RT. 4. Measured absorbance at a wavelength between 650 nm in a microliter plate reader.
(§10) 1. Dissolved 1 mg Threonine Phosphopeptide (Catalog #12-219) in 1.10 mL of distilled water to prepare a 1 mM solution. 2. Aliquot peptide solution and stored at ˜20° C. as necessary.
(§11) 1. Mouse brain or liver was homogenized using lysis buffer (25 g/L), centrifuged at 12000 g for 10 minutes at […], and the supernatants were collected. 2. The protein was quantitated, and 240 μg of mouse brain or liver lysate was taken to assay phosphatase activity. 3. […]

[2] = test system: PP2A; test: PP2A activity in mouse brains after IP dosing (PP2A immunoprecipitation phosphatase assay, malachite green); assay type: in vivo, Balb/c mice; conditions: brain
Experimental: as §1, §2, §3, §4, §5, §6, §7, §8, §9, §10, §11

[3] = test system: glioblastoma (U-87) cells; test: WST cell viability assay, U-87 MG; assay type: cell-based; conditions: Homo sapiens, U-87 MG
[4] = test system: lung cancer (A549) cells; test: WST cell viability assay, A549; assay type: cell-based; conditions: Homo sapiens, A549, read-out: IC50 A549
[5] = test system: breast cancer (2LMP) cells; test: WST cell viability assay, 2LMP
Description: IC50 values were obtained for cytotoxicity against breast cancer (2LMP), glioblastoma (U-87) and lung cancer (A549) cells (See Table 5 and FIGS. 3-5).

[6] = high dose IP (mpk: 100 1.5, 113 2.2, 151 1.6, 157 2.0), 3 h
[7] = high dose IP (mpk: 100 1.5, 113 2.2, 151 1.6, 157 2.0), 6 h
[8] = low dose IP (mpk: 100 0.75, 113 1.1, 151 0.8, 153 0.85, 157 1.0), 3 h
[9] = low dose IP (mpk: 100 0.75, 113 1.1, 151 0.8, 153 0.85, 157 1.0), 6 h
[10] = high dose IP (mpk: 100 1.5, 113 2.2, 151 1.6, 153 1.7, 157 2.0), 3 h
[11] = high dose IP (mpk: 100 1.5, 113 2.2, 151 1.6, 153 1.7, 157 2.0), 6 h

CN1CCN(C(=O)C2C3CCC(O3)C2C(=O)O)CC1 (stereo not shown) [Compound 100, 3-(4-methylpiperazine-1-carbonyl)-7-oxa-bicyclo[2,2,1]-heptane-2-carboxylic acid]
Average Conc. (group of 3 mice) [1, 6]: 290.15 | Average Relative Activity (group, vehicle = 100) [1, 6]: 73.9 | Conc. (phosphate, single reading, per mouse) [1, 6]: 340.38 and 353.99 and 282.08 and 493.05 and 279.92 and 293.74 | Mean Conc. (per mouse) [1, 6]: 347.18 and 387.56 and 286.83 | Mean Conc. less IgG blank (per mouse) [1, 6]: 296.81 and 337.19 and 236.46 | Relative Conc. (per mouse, to vehicle) [1, 6]: 0.76 and 0.86 and 0.6 | Relative PP2A Activity (per mouse, vehicle = 100) [1, 6]: 75.64 and 85.93 and 60.26 | Average Conc. (group of 3 mice) [1, 7]: 197.91 | Average Relative Activity (group, vehicle = 100) [1, 7]: 50.5 | Conc. (phosphate, single reading, per mouse) [1, 7]: 154.46 and 167.2 and 290.5 and 323.97 and 262.21 and 291.36 | Mean Conc. (per mouse) [1, 7]: 160.83 and 307.23 and 276.79 | Mean Conc. less IgG blank (per mouse) [1, 7]: 110.45 and 256.86 and 226.41 | Relative Conc. (per mouse, to vehicle) [1, 7]: 0.28 and 0.66 and 0.58 | Relative PP2A Activity (per mouse, vehicle = 100) [1, 7]: 28.21 and 65.59 and 57.82 | Average Conc. (group of 3 mice) [1, 8]: 289.29 | Average Relative Activity (group, vehicle = 100) [1, 8]: 73.7 | Conc. (phosphate, single reading, per mouse) [1, 8]: 292.01 and 308.85 and 318.57 and 329.58 and 359.6 and 429.35 | Mean Conc. (per mouse) [1, 8]: 300.43 and 324.08 and 394.47 | Mean Conc. less IgG blank (per mouse) [1, 8]: 250.06 and 273.7 and 344.1 | Relative Conc. (per mouse, to vehicle) [1, 8]: 0.64 and 0.7 and 0.88 | Relative PP2A Activity (per mouse, vehicle = 100) [1, 8]: 63.73 and 69.75 and 87.69 | Average Conc. (group of 3 mice) [1, 9]: 316.5 | Average Relative Activity (group, vehicle = 100) [1, 9]: 80.8 | Conc. (phosphate, single reading, per mouse) [1, 9]: 391.13 and 414.88 and 358.3 and 359.17 and 328.94 and 348.8 | Mean Conc. (per mouse) [1, 9]: 403 and 358.74 and 338.87 | Mean Conc. less IgG blank (per mouse) [1, 9]: 352.63 and 308.36 and 288.5 | Relative Conc. (per mouse, to vehicle) [1, 9]: 0.9 and 0.79 and 0.74 | Relative PP2A Activity (per mouse, vehicle = 100) [1, 9]: 90.05 and 78.74 and 73.67 | Average Conc. (group of 3 mice) [2, 10]: 1176.58 | Average Relative Activity (group, vehicle = 100) [2, 10]: 80.09 | Conc. (phosphate, single reading, per mouse) [2, 10]: 1090.16 and 1146.07 and 1273.56 and 1349.24 and 1116.43 and 1122.21 | Mean Conc. (per mouse) [2, 10]: 1118.11 and 1311.40 and 1119.32 | Mean Conc. less IgG blank (per mouse) [2, 10]: 1111.75 and 1305.03 and 1112.95 | Relative Conc. (per mouse, to vehicle) [2, 10]: 0.77 (2×) and 0.90 | Relative PP2A Activity (per mouse, vehicle = 100) [2, 10]: 75.68 and 88.84 and 75.76 | Average Conc. (group of 3 mice) [2, 11]: 1430.23 | Average Relative Activity (group, vehicle = 100) [2, 11]: 102.54 | Conc. (phosphate, single reading, per mouse) [2, 11]: 1524.93 and 1576.74 and 1180.05 and 1223.91 and 1496.73 and 1617.23 | Mean Conc. (per mouse) [2, 11]: 1550.84 and 1201.98 and 1556.98 | Mean Conc. less IgG blank (per mouse) [2, 11]: 1544.47 and 1195.62 and 1550.62 | Relative Conc. (per mouse, to vehicle) [2, 11]: 1.12 (2×) and 0.87 | Relative PP2A Activity (per mouse, vehicle = 100) [2, 11]: 110.73 and 85.72 and 111.17 | Average Conc. (group of 3 mice) [2, 8]: 1143.44 | Average Relative Activity (group, vehicle = 100) [2, 8]: 77.84 | Conc. (phosphate, single reading, per mouse) [2, 8]: 1131.61 and 1148.72 and 982.91 and 1046.54 and 1270.67 and 1318.39 | Mean Conc. (per mouse) [2, 8]: 1140.17 and 1014.72 and 1294.53 | Mean Conc. less IgG blank (per mouse) [2, 8]: 1133.80 and 1008.36 and 1288.16 | Relative Conc. (per mouse, to vehicle) [2, 8]: 0.78 and 0.69 and 0.89 | Relative PP2A Activity (per mouse, vehicle = 100) [2, 8]: 77.18 and 68.64 and 87.69 | Average Conc. (group of 3 mice) [2, 9]: 1009.84 | Average Relative Activity (group, vehicle = 100) [2, 9]: 72.40 | Conc. (phosphate, single reading, per mouse) [2, 9]: 996.89 and 1024.12 and 978.81 and 1073.53 and 990.38 and 1033.52 | Mean Conc. (per mouse) [2, 9]: 1010.51 and 1026.17 and 1011.95 | Mean Conc. less IgG blank (per mouse) [2, 9]: 1004.14 and 1019.81 and 1005.59 | Relative Conc. (per mouse, to vehicle) [2, 9]: 0.73 (2×) and 0.74 | Relative PP2A Activity (per mouse, vehicle = 100) [2, 9]: 71.99 and 73.11 and 72.09 | IC50 ([3]; read-out: IC50 U-87 MG, WST-20131017 (first value of the cell)): 19.9 µM | IC50 ([3]; read-out: IC50 U-87 MG, WST-20131024 (second value of the cell)): 25.2 µM | IC50 [4]: 10.3 µM | IC50 ([5]; read-out: IC50 2LMP, WST-20131015 (first value of the cell)): 3.41 µM | IC50 ([5]; read-out: IC50 2LMP, WST-20131025 (second value of the cell)): 6.98 µM
